US12371428B2 (Exelixis, Inc., priority 2019, dated 2025)

Assays:
[1] = molecular target: Human MET (residues 956-1390) (Homo sapiens (Human), UniProt P08581); experiment: Human Met kinase assay, HTRF KinEase (Example D-2); type: biochemical; conditions: protocol of Example D-2 (other compounds); read-out: c-Met IC50
Procedure, shortened: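 IC50 values come from a 4-parameter logistic fit of the […] fluorescence ratio, set between DMSO (100%) and reference compound at 1 μM (0%). Reactions held MET 956-1390 at 0.1 ng/well, ATP at Km, biotinylated peptide, 5 mM MgCl2, 1 mM MnCl2, 1 mM DTT and 3% DMSO, and ran 40 min at room temperature before streptavidin-XL665/Eu-antibody detection.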

[2] = molecular target: Met (phospho-Met, HGF-stimulated PC-3 prostate cancer cells) (Homo sapiens (Human), UniProt P08581); experiment: Met autophosphorylation ELISA in PC-3 cells (Example F); type: cell-based; conditions: cellular activity; Met autophosphorylation ELISA in PC-3 cells; read-out: c-Met IC50
Procedure, shortened: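 Serum-starved (3 h) PC-3 cells were treated 1 h with compounds (8-point curve, 0.3% DMSO), then stimulated with 100 ng/mL human HGF for 10 min. Lysate phospho-Met (panTyr) was measured by sandwich ELISA, normalised to DMSO and reference-inhibitor controls. IC50 came from 4-parameter logistic fit.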

[3] = molecular target: Mer (phospho-Mer, MERTK-transfected 293A cells) (Homo sapiens (Human), UniProt Q12866); experiment: Mer autophosphorylation ELISA in transient transfected 293A cells (Example H); type: cell-based; conditions: cellular activity; Mer autophosphorylation ELISA in transient transfected 293A cells
Procedure, shortened: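 IC50 from 4-parameter logistic fit of phospho-Mer levels, quantified by ELISA against a phospho-Mer standard in lysates of MERTK-transfected 293A cells. Cells exposed 1 h to 8-point serial dilutions, serum-free, 0.3% DMSO; controls: DMSO (100%) and reference inhibitor (0%).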

Met (phospho-Met, HGF-stimulated PC-3 prostate cancer cells), sequence (P08581 25-1390): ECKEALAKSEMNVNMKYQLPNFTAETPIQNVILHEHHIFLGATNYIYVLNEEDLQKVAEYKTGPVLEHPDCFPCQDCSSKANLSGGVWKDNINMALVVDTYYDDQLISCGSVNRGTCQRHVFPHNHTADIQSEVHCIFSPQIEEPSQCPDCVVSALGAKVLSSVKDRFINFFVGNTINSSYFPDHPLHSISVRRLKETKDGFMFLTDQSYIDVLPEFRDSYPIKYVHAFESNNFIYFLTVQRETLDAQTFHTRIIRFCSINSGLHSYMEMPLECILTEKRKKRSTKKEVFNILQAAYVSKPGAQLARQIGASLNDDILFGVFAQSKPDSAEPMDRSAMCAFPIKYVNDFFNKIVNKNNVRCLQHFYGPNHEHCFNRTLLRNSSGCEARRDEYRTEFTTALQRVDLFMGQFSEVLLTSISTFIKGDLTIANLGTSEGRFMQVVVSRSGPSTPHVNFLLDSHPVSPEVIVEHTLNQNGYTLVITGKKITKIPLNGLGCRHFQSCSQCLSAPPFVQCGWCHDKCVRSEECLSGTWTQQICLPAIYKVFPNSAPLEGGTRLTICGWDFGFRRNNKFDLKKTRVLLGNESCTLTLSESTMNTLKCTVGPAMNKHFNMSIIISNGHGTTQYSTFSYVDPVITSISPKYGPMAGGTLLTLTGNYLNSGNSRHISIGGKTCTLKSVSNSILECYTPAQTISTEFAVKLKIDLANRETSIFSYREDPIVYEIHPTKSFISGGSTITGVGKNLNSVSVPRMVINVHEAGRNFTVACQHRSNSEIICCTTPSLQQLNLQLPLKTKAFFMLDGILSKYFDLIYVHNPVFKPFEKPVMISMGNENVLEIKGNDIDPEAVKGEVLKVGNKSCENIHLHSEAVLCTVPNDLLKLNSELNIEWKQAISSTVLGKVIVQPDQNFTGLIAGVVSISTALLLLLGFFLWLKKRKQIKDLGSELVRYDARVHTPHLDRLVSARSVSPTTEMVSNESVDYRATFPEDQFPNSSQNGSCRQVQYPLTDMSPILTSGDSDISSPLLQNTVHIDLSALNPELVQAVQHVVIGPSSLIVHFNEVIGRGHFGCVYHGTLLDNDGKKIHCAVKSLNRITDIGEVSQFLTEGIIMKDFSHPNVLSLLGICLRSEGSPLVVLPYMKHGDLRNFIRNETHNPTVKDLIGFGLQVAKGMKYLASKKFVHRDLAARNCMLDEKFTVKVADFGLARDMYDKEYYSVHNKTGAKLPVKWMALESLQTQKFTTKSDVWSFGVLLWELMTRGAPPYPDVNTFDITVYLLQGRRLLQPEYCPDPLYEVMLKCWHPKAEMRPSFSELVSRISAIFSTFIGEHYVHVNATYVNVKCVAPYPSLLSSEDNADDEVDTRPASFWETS
Human MET (residues 956-1390), sequence (P08581 956-1390): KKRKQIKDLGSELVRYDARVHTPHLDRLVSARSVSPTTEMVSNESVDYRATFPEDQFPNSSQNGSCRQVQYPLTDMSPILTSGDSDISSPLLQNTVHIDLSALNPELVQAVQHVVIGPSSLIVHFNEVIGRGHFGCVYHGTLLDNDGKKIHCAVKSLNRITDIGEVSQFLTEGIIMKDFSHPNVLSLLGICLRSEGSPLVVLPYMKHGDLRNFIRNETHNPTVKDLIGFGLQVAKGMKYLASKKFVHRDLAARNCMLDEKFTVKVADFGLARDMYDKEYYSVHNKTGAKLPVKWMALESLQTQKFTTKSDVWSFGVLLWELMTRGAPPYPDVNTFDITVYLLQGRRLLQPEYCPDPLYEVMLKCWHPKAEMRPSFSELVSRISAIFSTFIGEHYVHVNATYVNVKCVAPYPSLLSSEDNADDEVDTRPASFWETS
Mer (phospho-Mer, MERTK-transfected 293A cells), sequence (Q12866 21-999): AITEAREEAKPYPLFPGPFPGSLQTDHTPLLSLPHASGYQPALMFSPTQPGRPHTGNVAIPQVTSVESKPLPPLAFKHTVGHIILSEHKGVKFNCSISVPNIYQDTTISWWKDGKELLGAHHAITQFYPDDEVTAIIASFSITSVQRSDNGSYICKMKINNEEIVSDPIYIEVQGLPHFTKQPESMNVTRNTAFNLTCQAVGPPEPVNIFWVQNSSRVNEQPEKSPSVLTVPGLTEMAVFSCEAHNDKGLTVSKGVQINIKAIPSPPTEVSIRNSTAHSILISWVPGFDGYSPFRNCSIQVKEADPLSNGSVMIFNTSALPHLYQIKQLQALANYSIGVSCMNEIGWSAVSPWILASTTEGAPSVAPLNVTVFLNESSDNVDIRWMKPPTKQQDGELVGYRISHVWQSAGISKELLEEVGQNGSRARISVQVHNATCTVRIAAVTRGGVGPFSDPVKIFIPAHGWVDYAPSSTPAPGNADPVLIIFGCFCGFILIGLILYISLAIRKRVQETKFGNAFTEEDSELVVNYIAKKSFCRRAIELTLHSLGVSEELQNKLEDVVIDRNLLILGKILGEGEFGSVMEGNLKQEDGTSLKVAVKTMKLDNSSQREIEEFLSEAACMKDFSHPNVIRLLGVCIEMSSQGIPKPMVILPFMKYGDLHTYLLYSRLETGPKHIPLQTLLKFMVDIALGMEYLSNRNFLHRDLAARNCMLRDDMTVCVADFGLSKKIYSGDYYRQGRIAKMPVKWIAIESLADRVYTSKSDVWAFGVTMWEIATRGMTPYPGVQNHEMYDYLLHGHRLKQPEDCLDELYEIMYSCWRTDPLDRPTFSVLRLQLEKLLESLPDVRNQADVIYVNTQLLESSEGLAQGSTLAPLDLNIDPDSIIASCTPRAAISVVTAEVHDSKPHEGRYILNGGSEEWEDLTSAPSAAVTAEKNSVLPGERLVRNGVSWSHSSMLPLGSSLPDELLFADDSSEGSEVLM

Row | Structure (SMILES) | IC50 [1] | IC50 [2] | IC50 [3]
1 | COc1cnc2c(Oc3ccc(NC(=O)c4n[nH]c(C)c(-c5ccc(F)cc5)c4=O)cc3F)ccnc2c1 [Compound 246, N-[3-Fluoro-4-[(7-methoxy-1,5-naphthyridin-4-yl)oxy]phenyl]-5-(4-fluorophenyl)-6-methyl-4-oxo-1H-pyridazine-3-carboxamide] | < 0.1 µM | < 0.1 µM | < 0.1 µM
2 | COc1cc2nccc(Oc3ccc(NC(=O)c4n[nH]c(C)c(-c5ccc(F)cc5C)c4=O)cc3)c2nc1OC [Compound 247, N-[4-[(6,7-Dimethoxy-1,5-naphthyridin-4-yl)oxy]phenyl]-5-(4-fluoro-2-methylphenyl)-6-methyl-4-oxo-1H-pyridazine-3-carboxamide] | < 0.1 µM | < 0.1 µM | < 0.1 µM
3 | COc1cnc2c(Oc3ccc(NC(=O)c4n[nH]c(C)c(-c5ccc(F)cc5C)c4=O)cc3)ccnc2c1 [Compound 248, 5-(4-Fluoro-2-methylphenyl)-N-[4-[(7-methoxy-1,5-naphthyridin-4-yl)oxy]phenyl]-6-methyl-4-oxo-1H-pyridazine-3-carboxamide] | < 0.1 µM | < 0.1 µM | < 0.1 µM
4 | COc1cnc2c(Oc3ccc(NC(=O)c4n[nH]c(C)c(-c5ccc(F)cc5C)c4=O)cc3F)ccnc2c1 [Compound 249A, N-[3-Fluoro-4-[(7-methoxy-1,5-naphthyridin-4-yl)oxy]phenyl]-5-(4-fluoro-2-methylphenyl)-6-methyl-4-oxo-1H-pyridazine-3-carboxamide] | < 0.1 µM | < 0.1 µM | < 0.1 µM
5 | COc1cnc2c(Oc3ccc(NC(=O)c4nn(C)c(C)c(-c5ccc(F)cc5)c4=O)cc3F)ccnc2c1 [Compound 250, N-[3-Fluoro-4-[(7-methoxy-1,5-naphthyridin-4-yl)oxy]phenyl]-5-(4-fluorophenyl)-1,6-dimethyl-4-oxopyridazine-3-carboxamide] | < 0.1 µM | < 0.1 µM | < 0.1 µM
6 | COc1cnc2c(Oc3ccc(NC(=O)c4nn(C)c(C)c(-c5ccc(F)cc5)c4=O)cc3)ccnc2c1 [Compound 251, 5-(4-Fluorophenyl)-N-[4-[(7-methoxy-1,5-naphthyridin-4-yl)oxy]phenyl]-1,6-dimethyl-4-oxopyridazine-3-carboxamide] | < 0.1 µM | < 0.1 µM | < 0.1 µM

Results, then the molecule that gave them:

Row | IC50 [1] | IC50 [2] | IC50 [3] | Structure (SMILES)
7 | < 0.1 µM | < 0.1 µM | < 0.1 µM | COCCOc1nc2c(Oc3ccc(NC(=O)c4n[nH]c(C)c(-c5ccc(F)cc5C)c4=O)cc3F)ccnc2cc1OC [Compound 252, N-[3-Fluoro-4-[[7-methoxy-6-(2-methoxyethoxy)-1,5-naphthyridin-4-yl]oxy]phenyl]-5-(4-fluoro-2-methylphenyl)-6-methyl-4-oxo-1H-pyridazine-3-carboxamide]
8 | < 0.1 µM | 0.1 to 0.3 µM | < 0.1 µM | COc1cnc2c(Oc3ccc(NC(=O)c4c(C)ncn(-c5ccc(F)cc5)c4=O)cc3F)ccnc2c1 [Compound 256, N-[3-Fluoro-4-[(7-methoxy-1,5-naphthyridin-4-yl)oxy]phenyl]-1-(4-fluorophenyl)-4-methyl-6-oxopyrimidine-5-carboxamide]
9 | < 0.1 µM | < 0.1 µM | < 0.1 µM | COc1cnc2c(Oc3ccc(NC(=O)c4c(C)nc(C)n(-c5ccc(F)cc5)c4=O)cc3F)ccnc2c1 [Compound 257, N-[3-Fluoro-4-[(7-methoxy-1,5-naphthyridin-4-yl)oxy]phenyl]-1-(4-fluorophenyl)-2,4-dimethyl-6-oxopyrimidine-5-carboxamide]
10 | < 0.1 µM | < 0.1 µM | < 0.1 µM | COc1cnc2c(Oc3ccc(NC(=O)c4c(C)nc(C)n(-c5ccc(F)cc5)c4=O)cc3)ccnc2c1 [Compound 258, 1-(4-Fluorophenyl)-N-[4-[(7-methoxy-1,5-naphthyridin-4-yl)oxy]phenyl]-2,4-dimethyl-6-oxopyrimidine-5-carboxamide]
11 | 0.1 to 0.3 µM | < 0.1 µM | < 0.1 µM | COc1cc2nccc(Oc3ccc(NC(=O)c4cn(CC(F)(F)F)c(C)c(-c5ccc(F)cc5)c4=O)cc3F)c2cc1OC [Compound 259, N-[4-(6,7-Dimethoxyquinolin-4-yl)oxy-3-fluorophenyl]-5-(4-fluorophenyl)-6-methyl-4-oxo-1-(2,2,2-trifluoroethyl)pyridine-3-carboxamide]
12 | < 0.1 µM | < 0.1 µM | < 0.1 µM | COc1cnc2c(Oc3ccc(NC(=O)c4cn(CC(F)(F)F)c(C)c(-c5ccc(F)cc5)c4=O)cc3F)ccnc2c1 [Compound 261, N-[3-Fluoro-4-[(7-methoxy-1,5-naphthyridin-4-yl)oxy]phenyl]-5-(4-fluorophenyl)-6-methyl-4-oxo-1-(2,2,2-trifluoroethyl)pyridine-3-carboxamide]
13 | < 0.1 µM | < 0.1 µM | < 0.1 µM | COc1cc2nccc(Oc3ccc(NC(=O)c4ncc(C)n(-c5ccc(F)cc5)c4=O)cc3)c2nc1OC [Compound 262, N-[4-[(6,7-Dimethoxy-1,5-naphthyridin-4-yl)oxy]phenyl]-4-(4-fluorophenyl)-5-methyl-3-oxopyrazine-2-carboxamide]
